Experimental data taken from ChEMBL document CHEMBL1156642, “Discovery of betamethasone 17alpha-carbamates as dissociated glucocorticoid receptor modulators in the rat” (Bioorg Med Chem, 2008).
The source made the active and inactive calls. No cut-off for these calls is given here.

What was measured:
Progesterone receptor = biological target: T1, Progesterone receptor (Homo sapiens, UniProt P06401); assay: Inhibition of human progesterone receptor
T1 sequence (P06401 whole entry): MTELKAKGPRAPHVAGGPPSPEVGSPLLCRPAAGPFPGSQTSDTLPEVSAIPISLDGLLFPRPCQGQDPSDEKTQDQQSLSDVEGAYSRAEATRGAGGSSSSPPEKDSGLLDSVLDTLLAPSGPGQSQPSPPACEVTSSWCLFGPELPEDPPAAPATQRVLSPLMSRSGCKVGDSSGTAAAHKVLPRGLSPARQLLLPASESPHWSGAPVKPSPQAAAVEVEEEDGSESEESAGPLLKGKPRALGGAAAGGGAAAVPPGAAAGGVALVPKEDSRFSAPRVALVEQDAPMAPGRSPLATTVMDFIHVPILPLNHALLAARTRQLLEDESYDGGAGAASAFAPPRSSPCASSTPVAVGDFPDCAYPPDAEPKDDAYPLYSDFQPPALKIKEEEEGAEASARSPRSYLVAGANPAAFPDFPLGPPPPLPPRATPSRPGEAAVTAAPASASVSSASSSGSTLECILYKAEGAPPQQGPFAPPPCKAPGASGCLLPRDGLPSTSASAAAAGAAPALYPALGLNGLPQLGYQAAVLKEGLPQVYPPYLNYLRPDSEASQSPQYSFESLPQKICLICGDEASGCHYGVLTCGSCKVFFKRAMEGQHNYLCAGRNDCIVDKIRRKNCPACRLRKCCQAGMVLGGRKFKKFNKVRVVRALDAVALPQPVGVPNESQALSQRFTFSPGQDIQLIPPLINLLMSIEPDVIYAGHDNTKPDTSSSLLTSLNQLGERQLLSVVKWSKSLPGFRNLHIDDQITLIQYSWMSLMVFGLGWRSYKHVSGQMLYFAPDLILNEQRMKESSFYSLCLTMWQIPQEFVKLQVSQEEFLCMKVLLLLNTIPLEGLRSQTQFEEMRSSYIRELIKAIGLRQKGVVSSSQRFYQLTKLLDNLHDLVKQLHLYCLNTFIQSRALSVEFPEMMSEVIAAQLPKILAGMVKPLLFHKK

Rattus norvegicus [1] = species on record: Rattus norvegicus; assay: Transactivation activity of glutamine synthase in rat skeletal muscle cells relative to Dexamethasone; type: cell-based
Rattus norvegicus [2] = assay: Effect on adrenal weight in Lewis rat with implanted cotton pellets at 5.0 mg/kg, po bid; type: functional
Rattus norvegicus [3] = assay: Effect on adrenal weight in Lewis rat with implanted cotton pellets at 10 mg/kg, po bid; type: functional
Rattus norvegicus [4] = assay: Effect on body weight change in Lewis rat with implanted cotton pellets at 10 mg/kg, po bid for 4 days; type: functional
Rattus norvegicus [5] = assay: Effect on body weight change in Lewis rat with implanted cotton pellets at 5.0 mg/kg, po bid for 4 days; type: functional
Rattus norvegicus [6] = assay: Effect on spleen weight in Lewis rat with implanted cotton pellets at 19 mg/kg, po bid; type: functional
Rattus norvegicus [7] = assay: Effect on thymus weight in Lewis rat with implanted cotton pellets at 5.0 mg/kg, po bid; type: functional
Rattus norvegicus [8] = assay: Effect on body weight change in Lewis rat with implanted cotton pellets at 5.0 mg/kg, po bid for 7 days; type: functional
Rattus norvegicus [9] = assay: Effect on spleen weight in Lewis rat with implanted cotton pellets at 10 mg/kg, po bid; type: functional
Rattus norvegicus [10] = assay: Effect on body weight change in Lewis rat with implanted cotton pellets at 19 mg/kg, po bid for 7 days; type: functional
Rattus norvegicus [11] = assay: Effect on spleen weight in Lewis rat with implanted cotton pellets at 5.0 mg/kg, po bid; type: functional
Rattus norvegicus [12] = assay: Inhibition of granuloma formation in cotton pellet implanted Lewis rat at 10 mg/kg, po bid; type: functional
Rattus norvegicus [13] = assay: Inhibition of granuloma formation in cotton pellet implanted Lewis rat at 19 mg/kg, po bid; type: functional
Rattus norvegicus [14] = assay: Effect on plasma glucose level in Lewis rat with implanted cotton pellets at 10 mg/kg, po by oral glucose tolerance test; type: functional, organism-based; set-up: dose 10 mg/kg
Rattus norvegicus [15] = assay: Inhibition of granuloma formation in cotton pellet implanted Lewis rat at 5.0 mg/kg, po bid; type: functional
Glucocorticoid receptor = biological target: T2, Glucocorticoid receptor (Homo sapiens, UniProt P04150)
T2 sequence (P04150 whole entry): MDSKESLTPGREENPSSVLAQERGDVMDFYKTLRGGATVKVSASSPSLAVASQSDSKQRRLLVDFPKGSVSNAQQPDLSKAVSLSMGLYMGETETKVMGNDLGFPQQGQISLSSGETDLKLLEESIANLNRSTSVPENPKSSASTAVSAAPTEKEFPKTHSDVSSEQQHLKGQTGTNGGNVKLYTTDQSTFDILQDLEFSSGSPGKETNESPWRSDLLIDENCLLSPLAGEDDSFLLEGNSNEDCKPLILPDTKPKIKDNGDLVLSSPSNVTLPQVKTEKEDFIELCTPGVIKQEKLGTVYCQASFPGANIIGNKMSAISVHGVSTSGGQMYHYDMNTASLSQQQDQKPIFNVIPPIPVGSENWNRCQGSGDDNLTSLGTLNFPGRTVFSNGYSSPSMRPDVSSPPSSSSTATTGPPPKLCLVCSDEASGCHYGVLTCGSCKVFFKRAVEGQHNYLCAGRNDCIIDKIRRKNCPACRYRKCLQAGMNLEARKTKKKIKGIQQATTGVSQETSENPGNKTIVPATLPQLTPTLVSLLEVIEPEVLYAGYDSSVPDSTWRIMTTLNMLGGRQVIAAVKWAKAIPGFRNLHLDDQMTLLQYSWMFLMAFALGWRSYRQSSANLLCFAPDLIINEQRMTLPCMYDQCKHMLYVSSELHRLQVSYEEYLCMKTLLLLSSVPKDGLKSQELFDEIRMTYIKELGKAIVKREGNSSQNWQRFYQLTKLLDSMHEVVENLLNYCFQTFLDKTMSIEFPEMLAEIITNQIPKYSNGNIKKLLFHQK
Description: Inhibition of human glucocorticoid receptor

[16] = biological target: T3, Interstitial collagenase (Homo sapiens) (UniProt P03956); assay: Inhibition of glucocorticoid-mediated human MMP1 expression in PMA stimulated A549 cells assessed as MMP1 protein level by ELISA relative to Dexamethasone; type: cell-based; set-up: scale not given: the % may be the effect or the level left
T3 sequence (whole entry): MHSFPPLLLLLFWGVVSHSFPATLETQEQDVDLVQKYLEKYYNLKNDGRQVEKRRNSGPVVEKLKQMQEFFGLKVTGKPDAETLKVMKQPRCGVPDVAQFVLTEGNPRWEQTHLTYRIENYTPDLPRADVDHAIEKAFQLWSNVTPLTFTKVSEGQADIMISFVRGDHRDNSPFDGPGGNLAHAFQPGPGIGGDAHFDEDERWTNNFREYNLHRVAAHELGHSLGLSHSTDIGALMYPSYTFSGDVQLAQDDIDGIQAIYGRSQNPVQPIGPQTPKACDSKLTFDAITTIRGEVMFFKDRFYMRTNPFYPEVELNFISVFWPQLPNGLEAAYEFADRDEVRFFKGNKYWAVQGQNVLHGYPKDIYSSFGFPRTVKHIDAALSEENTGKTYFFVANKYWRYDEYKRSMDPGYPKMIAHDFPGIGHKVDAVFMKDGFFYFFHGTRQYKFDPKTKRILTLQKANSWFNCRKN

Rattus norvegicus [17] = assay: Effect on body weight change in Lewis rat with implanted cotton pellets at 10 mg/kg, po bid for 7 days; type: functional
Rattus norvegicus [18] = assay: Effect on thymus weight in Lewis rat with implanted cotton pellets at 10 mg/kg, po bid; type: functional
Rattus norvegicus [19] = assay: Effect on thymus weight in Lewis rat with implanted cotton pellets at 19 mg/kg, po bid; type: functional
Rattus norvegicus [20] = assay: Effect on plasma glucose level in Lewis rat with implanted cotton pellets at 19 mg/kg, po by oral glucose tolerance test; type: functional, organism-based; set-up: dose 19 mg/kg
Rattus norvegicus [21] = assay: Effect on body weight change in Lewis rat with implanted cotton pellets at 19 mg/kg, po bid for 4 days; type: functional
Rattus norvegicus [22] = assay: Effect on adrenal weight in Lewis rat with implanted cotton pellets at 19 mg/kg, po bid; type: functional
Rattus norvegicus [23] = assay: Effect on spleen weight in Lewis rat with implanted cotton pellets at 2.5 mg/kg, po bid; type: functional
Rattus norvegicus [24] = assay: Inhibition of granuloma formation in cotton pellet implanted Lewis rat at 2.5 mg/kg, po bid; type: functional
Rattus norvegicus [25] = assay: Effect on thymus weight in Lewis rat with implanted cotton pellets at 1.0 mg/kg, po bid; type: functional
Rattus norvegicus [26] = assay: Effect on thymus weight in Lewis rat with implanted cotton pellets at 6.0 mg/kg, po bid; type: functional
Rattus norvegicus [27] = assay: Effect on body weight change in Lewis rat with implanted cotton pellets at 6.0 mg/kg, po bid for 7 days; type: functional
Rattus norvegicus [28] = assay: Effect on spleen weight in Lewis rat with implanted cotton pellets at 6.0 mg/kg, po bid; type: functional
Rattus norvegicus [29] = assay: Effect on body weight change in Lewis rat with implanted cotton pellets at 2.5 mg/kg, po bid for 7 days; type: functional
Rattus norvegicus [30] = assay: Effect on body weight change in Lewis rat with implanted cotton pellets at 6.0 mg/kg, po bid for 4 days; type: functional
Rattus norvegicus [31] = assay: Effect on body weight change in Lewis rat with implanted cotton pellets at 2.5 mg/kg, po bid for 4 days; type: functional
Rattus norvegicus [32] = assay: Effect on adrenal weight in Lewis rat with implanted cotton pellets at 6.0 mg/kg, po bid; type: functional
Rattus norvegicus [33] = assay: Inhibition of granuloma formation in cotton pellet implanted Lewis rat at 6.0 mg/kg, po bid; type: functional
Rattus norvegicus [34] = assay: Effect on thymus weight in Lewis rat with implanted cotton pellets at 2.5 mg/kg, po bid; type: functional
Rattus norvegicus [35] = assay: Effect on body weight change in Lewis rat with implanted cotton pellets at 1.0 mg/kg, po bid for 7 days; type: functional
Rattus norvegicus [36] = assay: Effect on adrenal weight in Lewis rat with implanted cotton pellets at 2.5 mg/kg, po bid; type: functional
Mus musculus = species on record: Mus musculus; assay: Inhibition of LPS-induced TNFalpha production in mouse; type: functional
Rattus norvegicus [37] = assay: Inhibition of granuloma formation in cotton pellet implanted Lewis rat at 1.0 mg/kg, po bid; type: functional
Rattus norvegicus [38] = assay: Effect on body weight change in Lewis rat with implanted cotton pellets at 1.0 mg/kg, po bid for 4 days; type: functional
Rattus norvegicus [39] = assay: Effect on adrenal weight in Lewis rat with implanted cotton pellets at 1.0 mg/kg, po bid; type: functional
Rattus norvegicus [40] = assay: Effect on spleen weight in Lewis rat with implanted cotton pellets at 1.0 mg/kg, po bid; type: functional

## CCCNC(=O)O[C@]1(C(=O)CO)[C@@H](C)C[C@H]2[C@@H]3CCC4=CC(=O)C=C[C@]4(C)[C@@]3(F)[C@@H](O)C[C@@]21C
Progesterone receptor
  IC50: 394 nM
Rattus norvegicus [1]
  Activity: 34.7%
Rattus norvegicus [2]
  Activity: 34.7 mg
Rattus norvegicus [3]
  Activity: 34.6 mg
Rattus norvegicus [4]
  Activity: 3.9 g
Rattus norvegicus [5]
  Activity: 1.1 g
Rattus norvegicus [6]
  Activity: 258 mg
Rattus norvegicus [7]
  Activity: 105.5 mg
Rattus norvegicus [8]
  Activity: 5 g
Rattus norvegicus [9]
  Activity: 274.3 mg
Rattus norvegicus [10]
  Activity: 6.6 g
Rattus norvegicus [11]
  Activity: 296.1 mg
Rattus norvegicus [12]
  inhibition in vivo at 10 mg/kg: 40%
Rattus norvegicus [13]
  inhibition in vivo at 19 mg/kg: 51%
Rattus norvegicus [14]
  Activity: Active
Rattus norvegicus [15]
  inhibition in vivo at 5 mg/kg: 32.7%
Glucocorticoid receptor
  IC50: 3.6 nM
[16]
  Activity: 103%
Rattus norvegicus [17]
  Activity: 7.1 g
Rattus norvegicus [18]
  Activity: 91.4 mg
Rattus norvegicus [19]
  Activity: 82.9 mg
Rattus norvegicus [20]
  Activity: Active
Rattus norvegicus [21]
  Activity: 3.9 g
Rattus norvegicus [22]
  Activity: 25.6 mg

## C[C@]12C=CC(=O)C=C1CC[C@@H]1[C@@H]2[C@@H](O)C[C@@]2(C)[C@H]1CC[C@]2(O)C(=O)CO [PREDNISOLONE]
Rattus norvegicus [23]
  Activity: 266.8 mg
Rattus norvegicus [24]
  inhibition in vivo at 2.5 mg/kg: 49.3%
Rattus norvegicus [25]
  Activity: 219.5 mg
Rattus norvegicus [26]
  Activity: 104 mg
Rattus norvegicus [27]
  Activity: -4.1 g
Rattus norvegicus [28]
  Activity: 260 mg
Rattus norvegicus [29]
  Activity: -0.4 g
Rattus norvegicus [30]
  Activity: -3.6 g
Rattus norvegicus [31]
  Activity: -1 g
Rattus norvegicus [32]
  Activity: 27.9 mg
Rattus norvegicus [33]
  inhibition in vivo at 6 mg/kg: 56.2%
Rattus norvegicus [34]
  Activity: 117.8 mg
Rattus norvegicus [35]
  Activity: 3 g
Rattus norvegicus [36]
  Activity: 26.9 mg
Mus musculus
  ED50: 0.5 mg/kg
Rattus norvegicus [37]
  inhibition in vivo at 1 mg/kg: 37.6%
Rattus norvegicus [38]
  Activity: 1.5 g
Rattus norvegicus [39]
  Activity: 38.7 mg
Rattus norvegicus [40]
  Activity: 334.7 mg
